Blank lines part the entries; values can stand above or below the compound they belong to.
Experiments:
[1] = Storage stability in DMEM, LC-MS/MS after DMEM extraction; assay type: physicochemical; details: for Stability 4 °C / Stability AS (autosampler) / Stability −20 °C / Stability BT (benchtop): 24 h; for Stability FT (freeze-thaw): freeze-thaw cycles; for Stability −80 °C 91 d: long-term freezing; for Stability BT (benchtop): room temperature
Description: (§1) To assess stability, low and high concentrations of all analytes were subjected to different storage conditions. […] For determination of long-term stability, samples were stored in either plasma or DMEM at –80 °C for 90 and 91 days, respectively. To measure short-term stability, samples were stored at room temperature, in an autosampler, at 4 °C, and at –20 °C for 24 h. In addition, freeze-thaw cycles were performed according to FDA guidance for the standard solutions. For comparison, at least three freshly prepared samples were prepared for each concentration level. With the exception of autosampler stability, the internal standard was always added to all samples before sample processing was started.
Regarding the medium, validation procedures were performed with high-glucose DMEM supplemented with 100 U/mL penicillin and 100 μg/mL streptomycin, but not with FBS. With the exception of selectivity, where both media (GlutaMAX™-I or UltraGlutamine^TM I supplement) were tested, only Gibco™ DMEM with GlutaMAX™-I was used for all other analytical procedures.
(§2) Liquid-liquid extraction was performed identically for plasma and DMEM samples. After addition of the 1.0 µM internal standard, 50 µL of 0.8 M alkaline carbonate buffer was added. The extraction was performed once with 890 µL ethyl acetate. Tubes were then shaken for 10 min at 1400 rpm using a Thermomixer 5436 (Eppendorf AG, Hamburg, Germany) followed by centrifugation for 5 min at 14,000 rpm using a Centrifuge 5415 C (Eppendorf AG, Hamburg, Germany). Subsequently, 850 µL of the supernatant was transferred to a new tube and evaporated to dryness for 35 min at 35 °C (8 min heating time) using a SpeedVac SPD130DLX (Thermo Fisher Scientific, Asheville, NC, USA). Reconstitution was performed with 200 µL of a acetonitrile/water/H2SO4 [3/0.5/0.5] mixture, shaken at 1400 rpm for 5 min, and centrifuged again at 14,000 rpm for 5 min. Finally, 155 µL of the sample was transferred to an LC vial and analyzed.
(§3) To assess stability, low and high concentrations of all analytes were exposed to different storage conditions. To determine long-term stability, samples were stored in either plasma or DMEM at −80 °C for 90 and 91 days, respectively. To determine short-term stability, samples were stored for 24 h on the bench at room temperature, in the autosampler, at 4 °C, and at −20 °C. In addition, freeze-thaw cycles were performed for the standard solutions according to FDA guidance. At least three freshly prepared samples per concentration level were prepared for comparison. With the exception of the stability test in the autosampler, the internal standard was always added to all samples before sample processing was started. However, to avoid concentration fluctuations due to possible degradation of the analytes, stock solutions were prepared twice a week and stored at −20 °C. Each storage condition was examined in the dark. For all conditions studied, n = 3–6 replicates were prepared.

[2] = Storage stability in human plasma, LC-MS/MS after plasma extraction; assay type: in vitro ADME; details: for Stability 4 °C / Stability AS (autosampler) / Stability −20 °C / Stability BT (benchtop): 24 h; for Stability FT (freeze-thaw): freeze-thaw cycles; for Stability −80 °C 90 d: long-term freezing; for Stability BT (benchtop): room temperature
Description: as §1, §2, §3

[3] = Storage stability in human plasma, LC-MS/MS after plasma precipitation; assay type: in vitro ADME; details: for Stability 4 °C / Stability AS (autosampler) / Stability −20 °C / Stability BT (benchtop): 24 h; for Stability FT (freeze-thaw): freeze-thaw cycles; for Stability BT (benchtop): room temperature
Description: as §1
After mixing the 1.5 µM internal standard and the plasma sample, protein precipitation was commenced. Next, 190 µL of acetonitrile and 50 µL of 0.5 M sulfuric acid buffer were added. The tubes were then shaken at 1400 rpm for 5 min followed by centrifugation at 14,000 rpm for 5 min. Subsequently, 195 µL of the supernatant was transferred to an LC tube and analyzed.
as §3

[4] = as above; assay type: in vitro ADME; details: long-term freezing
A375 (melanoma) = assay: WST-1 cell viability assay, 48-h incubation; assay type: cell-based, human; details: A375, WST-1, 48 h
Description: (§4) To test the biological activity of the thia-analogous indirubin N-glycosides that are the focus of the present work, the effects of KD87 and KD85 and their non-glycosylated parent compound KD88 on the viability of various tumor cell lines were initially investigated. The corresponding analyses were performed using the cell lines A375 (melanoma), A431 (skin squamous cell carcinoma), A549 (non-small cell lung carcinoma), U251MG (glioblastoma), and U138MG (glioblastoma).
(§5) Figure 2 Effect of increasing concentrations of KD87 (A), KD85 (B), and KD88 (C) on viability of various cancer cells. A375 (melanoma; black columns), A431 (skin squamous cell carcinoma; dark grey columns), A549 (non-small cell lung carcinoma; grey columns), U251MG (glioblastoma; light grey columns), or U138MG (glioblastoma; white columns) were incubated for 48 h with the appropriate compounds or vehicle followed by determination of cell viability by WST-1 assay. Percent control represents comparison with vehicle-treated cells (100%) in the absence of test substance. Values are mean ± standard error of the mean (SEM) of n = 15 in all panels, except n = 14 for A375 and A431 cells in panel B and n = 14–15 for A375 cells in panel C, from four (A375, A431) or five (A549, U251MG, U138MG) independent experiments. * p ≤ 0.05, ** p ≤ 0.01, *** p ≤ 0.001, **** p ≤ 0.0001 vs. vehicle control; one-way ANOVA with Dunnett’s post hoc test.
(§6) The human melanoma cell line A375 (#300110; RRID:CVCL_0132) as well as the human skin epidermoid carcinoma cell line A431 (#300112; RRID:CVCL_0037) were purchased from CLS Cell Lines Service GmbH (Eppelheim, Germany). The human glioblastoma cell line U251MG (#09063001; RRID:CVCL_0021) was from Sigma-Aldrich Corporation. The human glioblastoma cell line U138MG (#ACC 291; RRID: CVCL_0020) and the human lung carcinoma cell line A549 (#ACC 107, RRID:CVCL_0023) were purchased from DSMZ (Deutsche Sammlung von Mikroorganismen und Zellkulturen GmbH, Braunschweig, Germany).
(§7) Cells were cultured in high-glucose DMEM (with GlutaMAX™-I: A375, A431; with UltraGlutamine^TM I: A549, U251MG, U138MG) supplemented with 10% heat-inactivated FBS, 100 U/mL penicillin, and 100 μg/mL streptomycin and grown in a humidified incubator at 37 °C and 5% CO2. For viability analyses, cells were seeded in 96-well plates at a density of 5000 cells per well in DMEM containing 10% heat-inactivated FBS and cultured for 24 h. All cell experiments with the specific substances were performed in serum-free DMEM supplemented with 100 U/mL penicillin and 100 μg/mL streptomycin, applied after washing the cells with DPBS. The test substances were dissolved in DMSO. The final concentration of DMSO in the incubation media of test substance- and vehicle-treated cells was 1% (v/v).
(§8) After completion of the 48-h incubation, WST-1 reagent (Sigma, Taufkirchen, Germany) was added to the cells to achieve a final dilution of 1:10, and the cells were incubated for an additional 20 min before absorbance was measured at 450 nm, reference wavelength […], using a microplate reader.

U251MG (glioblastoma) = assay: WST-1 cell viability assay, 48-h incubation; assay type: cell-based, human; details: WST-1, 48 h
Description: as §4, §5, §6, §7, §8

[5] = test system: A431 (skin squamous cell carcinoma); assay: WST-1 cell viability assay, 48-h incubation; assay type: cell-based, human; details: A431, WST-1, 48 h
Description: as §4, §5, §6, §7, §8

U138MG (glioblastoma) = assay: WST-1 cell viability assay, 48-h incubation; assay type: cell-based, human; details: WST-1, 48 h
Description: as §4, §5, §6, §7, §8

[6] = test system: A549 (non-small cell lung carcinoma); assay: WST-1 cell viability assay, 48-h incubation; assay type: cell-based, human; details: A549, WST-1, 48 h
Description: as §4, §5, §6, §7, §8

[7] = test system: human gastric (SNU-638) cancer cells; details: sulforhodamine B assay, incubation 24 h longer than the 48-h assay; cited from earlier work
A549 lung cancer cells = details: sulforhodamine B assay, incubation 24 h longer than the 48-h assay; cited from earlier work
[8] = test system: human colon (Col2) cancer cells; details: sulforhodamine B assay, incubation 24 h longer than the 48-h assay; cited from earlier work
[9] = test system: human breast cancer cells (MCF-7); details: sulforhodamine B assay, incubation 24 h longer than the 48-h assay; cited from earlier work
leukemia cells (HL60) = details: sulforhodamine B assay, incubation 24 h longer than the 48-h assay; cited from earlier work
[10] = test system: human fibrosarcoma cell line HT1080; details: sulforhodamine B assay, incubation 24 h longer than the 48-h assay; cited from earlier work

Stability 4 °C ([1]; 3.0 nM): 113.8 ± 6.6%
Stability AS (autosampler) ([1]; 3.0 nM): 65.0 ± 1.3%
Stability −20 °C ([1]; 3.0 nM): 92.0 ± 1.1%
Stability FT (freeze-thaw) ([1]; 3.0 nM): 100.0 ± 5.7%
Stability −80 °C 91 d ([1]; 3.0 nM): 90.6 ± 4.5%
Stability BT (benchtop) ([1]; 3.0 nM): 66.8 ± 2.7%
Stability 4 °C ([1]; 40 nM): 100.4 ± 1.3%
Stability AS (autosampler) ([1]; 40 nM): 63.6 ± 0.3%
Stability −20 °C ([1]; 40 nM): 93.1 ± 2.5%
Stability FT (freeze-thaw) ([1]; 40 nM): 99.5 ± 3.2%
Stability −80 °C 91 d ([1]; 40 nM): 99.0 ± 2.7%
Stability BT (benchtop) ([1]; 40 nM): 59.4 ± 2.4%
Stability 4 °C ([2]; 3.0 nM): 95.9 ± 8.7%
Stability AS (autosampler) ([2]; 3.0 nM): 68.0 ± 1.5%
Stability −20 °C ([2]; 3.0 nM): 93.8 ± 1.9%
Stability FT (freeze-thaw) ([2]; 3.0 nM): 94.9 ± 4.0%
Stability −80 °C 90 d ([2]; 3.0 nM): 96.2 ± 7.2%
Stability BT (benchtop) ([2]; 3.0 nM): 102.2 ± 1.8%
Stability 4 °C ([2]; 250 nM): 94.6 ± 2.2%
Stability AS (autosampler) ([2]; 250 nM): 58.5 ± 1.3%
Stability −20 °C ([2]; 250 nM): 96.5 ± 1.6%
Stability FT (freeze-thaw) ([2]; 250 nM): 99.7 ± 1.6%
Stability −80 °C 90 d ([2]; 250 nM): 100.6 ± 3.0%
Stability BT (benchtop) ([2]; 250 nM): 96.3 ± 7.3%
Stability 4 °C ([3]; 2.0 nM): 89.7 ± 1.5%
Stability AS (autosampler) ([3]; 2.0 nM): 124.3 ± 9.5%
Stability −20 °C ([3]; 2.0 nM): 95.2 ± 3.7%
Stability FT (freeze-thaw) ([3]; 2.0 nM): 104.1 ± 5.5%
Stability BT (benchtop) ([3]; 2.0 nM): 100.1 ± 9.0%
Stability 4 °C ([3]; 167 nM): 91.5 ± 3.3%
Stability AS (autosampler) ([3]; 167 nM): 112.0 ± 6.8%
Stability −20 °C ([3]; 167 nM): 93.7 ± 7.7%
Stability FT (freeze-thaw) ([3]; 167 nM): 99.7 ± 7.4%
Stability BT (benchtop) ([3]; 167 nM): 98.6 ± 4.3%
Stability −80 °C 91 d ([4]; 2.0 nM): 101.0 ± 9.0%
Stability −80 °C 91 d ([4]; 167 nM): 103.0 ± 3.6%
SMILES: O=C1Nc2ccccc2/C1=C1/Nc2ccccc2/C1=N\O [I3M, indirubin-3′-monoxime]

SMILES: O=C1Nc2ccccc2/C1=C1/Sc2ccccc2C1=O [KD88, 3-[3′-oxo-benzo[b]thiophene-2′-(Z)-ylidene]-oxindole]
cytotoxic potential (in words) (A375 (melanoma)): no cytotoxic potential
cytotoxic potential (in words) (U251MG (glioblastoma)): no cytotoxic potential
cytotoxic potential (in words) [5]: no cytotoxic potential
cytotoxic potential (in words) (U138MG (glioblastoma)): no cytotoxic potential
cytotoxic potential (in words) [6]: no cytotoxic potential

SMILES: O=C1Nc2ccccc2/C1=C1/Nc2ccccc2C1=O [indirubin]
IC50 [7]: > 100 µM
IC50 (A549 lung cancer cells): 31 µM
IC50 [8]: > 100 µM
IC50 [9]: > 100 µM
IC50 (leukemia cells (HL60)): > 100 µM
IC50 [10]: 42 µM

Source: publication PMC9101087, “A Sensitive LC-MS/MS Method for the Simultaneous Determination of Two Thia-Analogous Indirubin N-Glycosides and Indirubin-3′-Monoxime in Plasma and Cell Culture Medium” (Molecules, 2022)
